# Measurements taken from patent US20240216339A1, “METHODS OF TREATING NEUROPSYCHIATRIC DISORDERS” (GILGAMESH PHARMACEUTICALS, INC., priority 2021, published 2024).
# Assays:
# [1] = test system: major depressive disorder (MDD); conditions: cited from earlier work
# [2] = test system: C57BL/6 mice; assay: Head twitch response (HTR) to 4-HO-MET after vehicle or daridorexant pre-treatment; assay type: in vivo, mouse; conditions: 4-HO-MET 0.32-3.2 mg/kg s.c.; vehicle (0.5% methylcellulose) pretreatment; 20 min period; FIG. 5
# Protocol: Administration of 5-HT2A receptor agonists in mice induces a robust head twitch response (HTR). The number of head twitches observed in mice is recognized as an indicator of the degree of psychedelic effects (Halberstadt et al 2020). To determine whether the HTR induced by 5-HT2A receptor agonists is modulated by dual orexin receptor antagonists, a study was performed comparing the HTR induced by a 5-HT2A receptor agonist, 4-hydroxy-N-methyl-N-ethyltryptamine (4-HO-MET), after pre-treatment with either vehicle or the dual orexin receptor antagonist daridorexant.
# Male C57BL/6 mice (˜6-8 Week; Hylasco, Hyderabad, India) were pair-housed under standard conditions on a 12-h light cycle with free access to food and water. On the test day, mice were randomly assigned to one of 6 treatment groups (see Table 1 below). Mice were dosed orally with 0.5% methylcellulose or daridorexant at t=−30 min followed by a subcutaneous (s.c.) injection of 4-HO-MET (0.32, 1, or 3.2 mg/kg) at t=0 min. Mice were then immediately placed in a chamber and the number of head twitches in a 20 min period post 4-HO-MET injection (t=0-20 min) were counted manually by a blinded, trained observer.
# [3] = test system: sleep-wake behaviour in Sprague Dawley rats; assay: EEG/EMG sleep-wake study of daridorexant, psilocybin and their combination; assay type: in vivo, rat
# Protocol: The aim of this study was to investigate the effects of daridorexant, psilocybin, and the combination of the two compounds, on sleep-wake behaviour in Sprague Dawley rats, across the circadian cycle. Daridorexant is a dual orexin receptor antagonist used for treating insomnia. Psilocybin is a 5-HT2A receptor agonist with psychedelic properties and relatively short half-life. The study was conducted at Transpharmation, UK, under Study IDs EEG079a and EEG079c.
# 8 male Sprague Dawley rats (Charles River, UK) were used in the study. Animals were housed in groups of 2-3 with standard conditions. Average weight at start of dosing was 433-517 g, corresponding to ˜ 14 weeks old.
# The animals were anaesthetised with isoflurane (2-5% in oxygen at 1 L/min) throughout the procedure. The scalp, neck, and right flank were cleared of hair using clippers and cleaned using diluted Hibitane (50% (v/v) in water). A non-steroidal anti-inflammatory agent was administered (Carprofen 5 mg/kg, subcutaneously (s.c.)) and the animals placed on a homeothermic blanket (37° C.) with the head fixed in a stereotaxic frame. Incisions were made in the scalp and neck, as well as in the right flank. Blunt dissection of the abdominal muscle was then made to gain access to the peritoneal cavity. A radio transmitter (HD-S02, Data Sciences International) was implanted in the peritoneal cavity and secured to the muscle wall with non-absorbable sutures. The wires of the transmitter were passed using a 16 G needle through the muscle wall and then sub-dermally to the scalp to act as EEG/EMG electrodes. The scalp was cleared of connective tissue and two craniotomies were made with a trepanning drill (fronto-parietal coordinates; Bregma+2 mm anterior, midline+1.0 mm lateral, and Lambda 0 mm, +1.5 mm lateral). The positive EEG electrode was attached to the anterior craniotomy and the negative EEG electrode to the posterior craniotomy. Both electrodes were secured in place using a suitable adhesive agent (cyanoacrylate gel, RS components). A second set of electrodes were sutured into the nuchal muscle to act as EMG electrodes. All incisions were closed using absorbable suture.
# All animals were allowed to recover in a warm environment and given 5 mL of saline s.c. Animals were kept singly in the cage until the next day, then pair housed for the duration of post-surgical recovery (minimum 7 days). During the recovery period the rats received 5 days of standard post-operative care with no further experimental procedures until the pre-operative body weight was regained. The animals were maintained on a 12/12 h light-dark cycle (08:00 am lights on) after the surgery.
# On study days, at ˜30 min after lights-on, animals were placed in recording boxes similar to their home cages and data acquisition was begun for confirmation of signal quality. After 30 min, each animal was briefly removed from its box to be dosed (see schedule below). Animals were immediately put back into the recording boxes, the experimenter left the room, and recordings continued uninterrupted for ˜23 h. At the end of the recording session, the transmitters were turned off and the animals were returned to their home cages. Animals received treatment conditions in a pseudo randomised cross-over fashion with a minimum period of 7 days between doses.
# Daridorexant was administered p.o. at a volume of 5 mL/kg with 0.5% methylcellulose vehicle (Vehicle 1), at doses of 30 mg/kg or 100 mg/kg. Psilocybin was administered s.c. at a volume of 3 mL/kg with saline vehicle (Vehicle 2), at doses of 0.5 mg/kg, 1 mg/kg, or 3 mg/kg.
# EEG, EMG, and locomotor activity data were acquired for ˜23 h post dosing using intraperitoneal HD-S02 transmitters (DSI, New Brighton, MN) and Spike2 software (CED, Cambridge UK). EEG/EMG signals were amplified, analogue filtered (0.5-100 Hz), digitized (256 Hz), and then digitally filtered (EEG: 0.5-100 Hz and EMG: 70-100 Hz). […]
# [4] = test system: individuals; conditions: anecdotal; individuals who fell asleep while taking LSD; more than 12 hours after the dose; cited from earlier work
# [5] = test system: patients with major depressive disorder (MDD); conditions: discontinued Phase II study; cited from earlier work
# [6] = first 4 h after dosing, daridorexant at both 30 and 100 mg/kg p.o., FIG. 1B
compound,measurement,setting,value
"Cc1cc(C)nc(N2CC3CN(C(=O)c4c(F)cccc4-n4nccn4)CC3C2)n1 (stereo not drawn) [seltorexant, Seltorexant]",(left posterior) EEG power,[1]; compared to placebo,overall increase
same,delta power during stage 2 sleep,[1]; compared to placebo,relative increase
same,"theta, alpha, and beta power during stage 2 sleep",[1]; compared to placebo,decrease
same,antidepressant efficacy with continued treatment,[1]; continued treatment up to 28 days,maintained
same,core depressive symptoms compared to placebo,"[1]; ten days of treatment, seen at day 11",significant improvement
"CCN(C)CCc1c[nH]c2cccc(O)c12 [4-HO-MET, 4-hydroxy-N-methyl-N-ethyltryptamine]",number of head twitches (HTR),[2],produced HTR in a dose-dependent manner
COc1ccc(-n2nccn2)c(C(=O)N2CCC[C@@]2(C)c2nc3c(C)c(Cl)ccc3[nH]2)c1 [daridorexant],percentage of time spent in Wake across 22 h,"[3]; first 2 h after dosing, daridorexant alone 30, 100 mg/kg, FIG. 3A",wakefulness reduction
same,percentage of time spent in NREM across 22 h,"[3]; first 2 h after dosing, daridorexant alone 30, 100 mg/kg, FIG. 3B",promotion of NREM and REM sleep
same,percentage of time spent in REM across 22 h,"[3]; first 2 h after dosing, daridorexant alone 30, 100 mg/kg, FIG. 3C",promotion of NREM and REM sleep
same,percentage of time spent in Wake,[3]; [6],acutely reduced wakefulness for the first 2 h after dosing
same,"percentage of time spent in sleep (NREM, REM)",[3]; [6],"promoting sleep, especially NREM sleep"
same,REM sleep onset latency,"[3]; psilocybin 1, 3 mg/kg, daridorexant 30, 100 mg/kg, combinations D100+P1, D30+P1, FIG. 2A",dose-dependent decrease
same,NREM sleep onset latency,"[3]; psilocybin 1, 3 mg/kg, daridorexant 30, 100 mg/kg, combinations D100+P1, D30+P1, FIG. 2B",reduction
"CCN(CC)C(=O)[C@@H]1C=C2c3cccc4[nH]cc(c34)C[C@H]2N(C)C1 [LSD, lysergic acid diethylamide]",next day creativity and vigor,[4],next day enhanced creativity and vigor
Cc1ccc(-c2ncccn2)c(C(=O)N2C[C@H](COc3ccc(F)cn3)CC[C@H]2C)c1 [filorexant],separation from placebo in MDD,[5],did not separate from placebo
